Experimental data as given in US12390437B2, “Itaconic acid derivatives and uses thereof intreating an inflammatory disease or a disease associated with an undesirable immune response” (Sitryx Therapeutics Limited, priority 2019, dated 2025).
Read-outs that look alike come from different tables or passages of the source.

Key:
[1] = Mouse pharmacokinetic study, intravenous dosing; format: in vivo; conditions: male, C57BL/6, mouse, iv, plasma, 10 mg/kg i.v., read-out: Parent compound concentration following intravenous administration
Description: Pharmacokinetic studies were carried out in 6-8-week-old male C57BL/6 mice having free access to food and water. Intravenous dosing was conducted at 10 mg/kg (5 mL/kg; vehicle: 10% DMSO-90% (25% HP-13-CD in water)) via tail vein injection, with sampling at 3 min, 8 min, 15 min, 30 min, 1, 2, 4, 6 and 8 hours, i.e., 9 time points in total (N=3/time point), using semi-serial bleeding for plasma. Oral compound administration, via gavage, was carried out at 100 mg/kg (10 mL/kg; vehicle: 5% DMSO-95% (0.5% HPMC+0.1% Tween 80 in water)), with sampling at 5 min, 15 min, 30 min, 1, 2, 4, 6, 8 and 24 hours, i.e., 9 time points in total (N=3/time point), using semi-serial bleeding for plasma.
For both intravenous and oral routes, the mice were restrained manually at the designated time points, with ca. 110 μL of blood being taken into K2EDTA tubes via the facial vein. Blood samples were put on ice and centrifuged to obtain plasma samples from which the concentration at each time point was measured by LC-MS/MS.

[2] = test system: IL-1β cytokine output from THP-1s; experiment: THP-1 AlphaLISA IL-1β cytokine assay; format: cell-based, human; conditions: LPS 24 hr then Nigericin 1 hour, read-out: IL-1β (IC50)
Description: Measuring Inhibitory Effects on IL-1β and IL-6 Cytokine Output from THP-1s
The cytokine inhibition profiles of compounds of formula (IW-1) were determined in a differentiated THP-1 cell assay. All assays were performed in RPMI-1640 growth medium (Gibco), supplemented with 10% fetal bovine serum (FBS; Gibco), 1% penicillin-streptomycin and 1% sodium pyruvate unless specified otherwise. The IL-1β and IL-6 cytokine inhibition assays were each run in a background of differentiated THP-1 cells as described below. All reagents described were from Sigma-Aldrich unless specified otherwise. Compounds were prepared as 10 mM DMSO stocks.
THP-1 cells were expanded as a suspension up to 80% confluence in appropriate growth medium. Cells were harvested, suspended, and treated with an appropriate concentration of phorbol 12-myristate 13-acetate (PMA) over a 72 hr period (37° C./5% CO2).
Following 72 hrs of THP-1 cell incubation, cellular medium was removed and replaced with fresh growth media containing 1% of FBS. Working concentrations of compounds were prepared separately in 10% FBS treated growth medium and pre-incubated with the cells for 30 minutes (37° C./5% CO2). Following the 30 minute compound pre-incubation, THP-1s were treated with an appropriate concentration of LPS and the THP-1s were subsequently incubated for a 24 hr period (37° C./5% CO2). An appropriate final concentration of Nigericin was then dispensed into the THP-1 plates and incubated for 1 hour (37° C./5% CO2) before THP-1 supernatants were harvested and collected in separate polypropylene 96-well holding plates.
Reagents from each of the IL-1β and IL-6 commercial kits (Perkin Elmer) were prepared and run according to the manufacturer's instructions. Subsequently, fluorescence signal detection in a microplate reader was measured (EnVision® Multilabel Reader, Perkin Elmer).
Percentage inhibition was calculated per cytokine by normalising the sample data to the high and low controls used within each plate (+/−LPS respectively). Percentage inhibition was then plotted against compound concentration and the 50% inhibitory concentration (IC50) was determined from the resultant concentration-response curve.

[3] = Homo sapiens, PMA-differentiated THP-1 cells
[4] = Homo sapiens, THP-1, PMA-differentiated THP-1 cells

Row | IC50 [2, 4] [µM] | Structure (SMILES) | other results
1 | – | C=C(CC(=O)OC12CC3CC(CC(C3)C1)C2)C(=O)OCC(=O)O [Example 172, 2-((4-((-adamantan-1-yl)oxy)-2-methylene-4-oxobutanoyl)oxy)acetic Acid] | concentration at 0.05 h ([1]; time 0.05 h): 23700 ng/mL; concentration at 0.133 h ([1]; time 0.133 h): 11300 ng/mL; concentration at 0.25 h ([1]; time 0.25 h): 2640 ng/mL; concentration at 0.5 h ([1]; time 0.5 h): 1210 ng/mL; concentration at 1 h ([1]; time 1 h): 75 ng/mL; concentration at 2 h ([1]; time 2 h): 9.9 ng/mL; concentration at 4 h ([1]; time 4 h): 6.1 ng/mL; concentration at 6 h ([1]; time 6 h): < 4 ng/mL; concentration at 8 h ([1]; time 8 h): < 4 ng/mL; IC50 [2, 3]: 23.8 µM
2 | 12 | C=C(CC(=O)OC(C)c1cc(Cl)cc(Cl)c1)C(=O)OCC(=O)O (centres unmarked) [Example 176, 2-((4-(1-(3,5-dichlorophenyl)ethoxy)-2-methylene-4-oxobutanoyl)oxy)acetic acid] | –
3 | 20.5 | C=C(CC(=O)OC(C)Cc1cc(Cl)cc(Cl)c1)C(=O)OCC(=O)O (centres unmarked) [Example 177, 2-((4-((1-(3,5-dichlorophenyl)propan-2-yl)oxy)-2-methylene-4-oxobutanoyl)oxy)acetic acid] | –
4 | 8.2 | C=C(CC(=O)OC(C1CCCCC1)C(F)(F)F)C(=O)OCC(=O)O (centres unmarked) [Example 180, 2-((4-(1-cyclohexyl-2,2,2-trifluoroethoxy)-2-methylene-4-oxobutanoyl)oxy)acetic acid] | –
5 | 32.8 | C=C(CC(=O)OC1C2CCCC1CCC2)C(=O)OCC(=O)O (centres unmarked) [Example 181, 2-((4-(bicyclo[3.3.1]nonan-9-yloxy)-2-methylene-4-oxobutanoyl)oxy)acetic acid] | –
6 | 9.6 | C=C(CC(=O)O[C@H](C)CCCCCCC)C(=O)OCC(=O)O [Example 183, (R)-2-((2-methylene-4-(nonan-2-yloxy)-4-oxobutanoyl)oxy)acetic acid] | –
7 | 33.9 | C=C(CC(=O)O[C@H](C)C1CCCCC1)C(=O)OCC(=O)O [Example 184, (R)-2-((4-(1-cyclohexylethoxy)-2-methylene-4-oxobutanoyl)oxy)acetic acid] | –
8 | 3.5 | C=C(CC(=O)O[C@H](C)CCCCCC)C(=O)O[C@H]1[C@@H]2CC[C@H]1CN(S(C)(=O)=O)C2 [Example 186, 1-((endo)-3-(methylsulfonyl)-3-azabicyclo[3.2.1]octan-8-yl) 4-((R)-octan-2-yl) 2-methylenesuccinate] | –
9 | 2.9 | C=C(CC(=O)O[C@H](C)CCCCCC)C(=O)OCc1cc(=O)[nH]o1 [Example 187, (R)-4-(octan-2-yl) 1-((3-oxo-2,3-dihydroisoxazol-5-yl)methyl) 2-methylenesuccinate] | –
10 | 3.5 | C=C(CC(=O)O[C@H](C)CCCCCC)C(=O)O[C@H](CC(=O)O)C(F)(F)F [Example 188, (R)-4,4,4-trifluoro-3-((2-methylene-4-(((R)-octan-2-yl)oxy)-4-oxobutanoyl)oxy)butanoic Acid] | –
11 | 24.3 | C=C(CC(=O)OC1(C)CC2(CCCCC2)C1)C(=O)OCC(=O)O [Example 195, 2-((2-methylene-4-((2-methylspiro[3.5]nonan-2-yl)oxy)-4-oxobutanoyl)oxy)acetic acid] | –
12 | – | C=C(CC(=O)OC1CC2CCC1(C)C2(C)C)C(=O)OCC(=O)O (stereo not drawn) [Example 196, 2-((2-methylene-4-oxo-4-(((exo)-1,7,7-trimethylbicyclo[2.2.1]heptan-2-yl)oxy)butanoyl)oxy)acetic acid] | IC50 ([2]; PMA-differentiated THP-1 cells): 18.8 µM
13 | 21.4 | C=C(CC(=O)OC1C(C)(C)CCCC1(C)C)C(=O)OCC(=O)O [Example 197] | –
14 | 11.5 | C=C(CC(=O)O[C@H](C)c1ccc(C(F)(F)F)cc1)C(=O)OCC(=O)O [Example 200, (R)-2-((2-methylene-4-oxo-4-(1-(4-(trifluoromethyl)phenyl)ethoxy)butanoyl)oxy) acetic acid] | –
15 | 24.6 | C=C(CC(=O)O[C@@H](C)c1ccc(C(F)(F)F)cc1)C(=O)OCC(=O)O [Example 201, (S)-2-((2-methylene-4-oxo-4-(1-(4-(trifluoromethyl)phenyl)ethoxy)butanoyl)oxy) acetic acid] | –
16 | – | C=C(CC(=O)OC1(C2CCCCC2)CC1)C(=O)OCC(=O)O [Example 202, 2-((4-(1-cyclohexylcyclopropoxy)-2-methylene-4-oxobutanoyl)oxy)acetic acid] | IC50 [2, 3]: 36.7 µM
17 | 22 | C=C(CC(=O)O[C@@H](C)C1CCCCC1)C(=O)OCC(=O)O [Example 203, (S)-2-((4-(1-cyclohexylethoxy)-2-methylene-4-oxobutanoyl)oxy)acetic acid] | –
18 | – | C=C(CC(=O)OC(C(C)(C)C)C(C)(C)C)C(=O)OCC(=O)O [Example 204, 2-((2-methylene-4-oxo-4-((2,2,4,4-tetramethylpentan-3-yl)oxy)butanoyl)oxy)acetic Acid] | IC50 [2, 3]: 41.7 µM
19 | 1.7 | C=C(CC(=O)O[C@H](C)CCCCCC)C(=O)O[C@@H](CC(=O)O)C(F)(F)F [Example 205, (S)-4,4,4-trifluoro-3-((2-methylene-4-(((R)-octan-2-yl)oxy)-4-oxobutanoyl)oxy)butanoic acid] | –
20 | 19.1 | C=C(CC(=O)OC1(CCCCC)CC1)C(=O)OCC(=O)O [Example 206, 2-((2-methylene-4-oxo-4-(1-pentylcyclopropoxy)butanoyl)oxy)acetic acid] | –

Row | Structure (SMILES) | IC50 [2, 4] [µM] | other results
21 | C=C(CC(=O)OC1(C2CCCCC2)CCC1)C(=O)OCC(=O)O [Example 191, 2-((4-(1-cyclohexylcyclobutoxy)-2-methylene-4-oxobutanoyl)oxy)acetic acid] | 26.6 | –
22 | C=C(CC(=O)OC1(CCCCC)CCC1)C(=O)OCC(=O)O [Example 194, 2-((2-methylene-4-oxo-4-(1-pentylcyclobutoxy)butanoyl)oxy)acetic acid] | 24.8 | –
23 | C=C(CC(=O)OC1C(C)(C)CC1(C)C)C(=O)OCCC(=O)O [Example 207, 3-((2-methylene-4-oxo-4-(2,2,4,4-tetramethylcyclobutoxy)butanoyl)oxy) propanoic Acid] | 100 | –
